Reference: EPA's aquatic toxicity sets
Values joined by “and” are separate entries in the source; they are usually repeats but may differ in a detail not shown here. Equal entries are not always repeated.

System: Pimephales promelas
Experiment: 96 h LC50 (-log10 mol/L); higher = more toxic

| Compound | 96 h LC50 (-log10 mol/L) |
| --- | --- |
| CC1(C)CCC(C)(C)O1 | 2.88 |
| ON=C1CCCCC1 | 2.74 |
| NC(=O)c1cccc(Br)c1 | 3.33 |
| ClC1C(Cl)C(Cl)C(Cl)C(Cl)C1Cl (stereo not given) | 6.61 |
| Clc1ccc(C(c2ccc(Cl)cc2)C(Cl)Cl)cc1 | 4.86 |
| ClCc1ccc(CCl)cc1 | 6.65 |
| CC(C)(C)c1ccc(Oc2cccc(C=O)c2)cc1 | 5.84 |
| Cc1ccc([N+](=O)[O-])c(N)c1 | 3.79 |
| O=[N+]([O-])c1ccc(/C=C/c2cccc(CO)n2)o1 | 5.48 |
| ClC1=C(Cl)[C@]2(Cl)[C@H]3[C@H]([C@@H]4C=C[C@H]3C4)[C@@]1(Cl)C2(Cl)Cl | 7.09 |
| OC1COC(O)C(O)C1O (stereo not given) | 0.6 |
| CCSCCSCC | 3.4 |
| CCOP(=S)(OCC)SC1OCCOC1SP(=S)(OCC)OCC (stereo not given) | 4.66 |
| CC(C)CCCCCOC(=O)C(C)Oc1cc(Cl)c(Cl)cc1Cl (stereo not given) | 4.24 |
| C1COCCO1 | 0.931 |
| CCCCN | 2.44 |
| O=C(Cl)c1ccccc1 | 3.61 |
| c1ccc(-c2ccc(-c3ccccc3)o2)cc1 | 6.64 |
| CCCSCCC | 3.74 |
| CCCSSCCC | 4.76 |
| CNC(=O)Oc1cccc2c1OC(C)(C)C2 | 5.4 |
| CCCCCCCCCCCCCN | 6.48 |

| Compound | 96 h LC50 (-log10 mol/L) |
| --- | --- |
| CC(C)(O)C(F)(F)C(F)F | 2.44 |
| CCCCCCC(C)N (stereo not given) | 4.4 |
| O=Cc1c(F)cccc1Cl | 4.23 |
| O=C(O)c1c(F)cccc1F | 3.36 |
| Brc1ccccc1Br | 4.76 |
| O=S(=O)([O-])c1ccc[n+](Cc2ccccc2)c1 | 2.02 |
| CC(C)=C1C=C2CC[C@@H]3[C@](C)(CCC[C@@]3(C)C(=O)O)[C@H]2CC1 | 5.31 |
| O=C1C2CC=CCC2C(=O)N1SC(Cl)(Cl)Cl (stereo not given) | 6.35 |
| CC(=O)c1ccc(Cl)c([N+](=O)[O-])c1 | 4.56 |
| CCOC(N)=O | 1.23 |
| O=CC=O | 2.43 |
| CN(C)C(=O)N[C@@H]1C[C@@H]2C[C@H]1[C@@H]1CCC[C@H]21 | 3.84 |
| C1=C[C@H]2CC[C@@H]1C2 | 3.97 |
| Cc1nnc(N)nc1C | 2.12 |
| Oc1cc(Cl)c(Cl)cc1O | 5.3 |
| O=c1cccc(Cl)[nH]1 | 2.78 |
| CC(=O)C(C)CN(C)C (stereo not given) | 4.18 |
| Cc1ccc(Cl)c(Cl)c1 | 4.74 |
| Nc1ccc(S(=O)(=O)O)cc1 | 3.24 |
| Brc1ccccc1 | 4.45 |
| COC(=O)C1C(C(=O)OC)C2(Cl)C(Cl)=C(Cl)C1(Cl)C2(Cl)Cl (stereo not given) | 5.38 |
| O=C1c2ccccc2C(=O)N1SC(Cl)(Cl)Cl | 6.21 |

System: Tetrahymena pyriformis
Experiment: 48 h IGC50 (-log10 mol/L); higher = more toxic

| Compound | 48 h IGC50 (-log10 mol/L) |
| --- | --- |
| CCOC(=O)C(NC(C)=O)C(=O)OCC | 1.8 |
| C=CC(=O)OCc1ccccc1 | 4.35 |
| CSc1ccccc1 | 3.18 |
| Oc1c(Cl)cc(Br)cc1Cl | 4.78 |
| O=[N+]([O-])c1cc(F)cc(I)c1 | 4.09 |
| CCCc1ccccc1N | 3.08 |
| O=C(O)CCBr | 2.96 |
| Oc1cc(Cl)c(O)cc1Cl | 4.81 |
| C=CCI | 3.8 |
| CCCNC | 2.19 |
| Cc1cc(C)c(O)c(C)c1 | 3.42 |
| CCc1cccc(CC)c1N | 3.31 |
| C#CCCCO | 1.58 |
| CNc1ccc(C(=O)OC)cc1 | 3.31 |
| C=C(C)C(=O)OC | 1.78 |
| CS(C)=O | 0.548 |
| O=C(O)c1c(Cl)cc(Cl)cc1Cl | 2.59 |
| C=C(C=O)CC | 3.91 |

| Compound | 48 h IGC50 (-log10 mol/L) |
| --- | --- |
| O=C(/C=C/c1ccccc1)N=C=S | 3.29 |
| CCC(O)(CC)C(C)(C)C | 2.83 |
| CCc1cc(O)ccc1Cl | 4.08 |
| Cc1ccc(O)cc1C | 3.12 |
| COC(=O)CCl | 3.89 |
| C=CC(C)(C)O | 1.61 |
| O=C(CBr)c1cccs1 | 5.22 |
| O=Cc1cc2ccccc2c2ccccc12 | 4.71 |
| NC(=O)c1ccc(N)cc1 | 2.09 |
| S=C=NCCCN=C=S | 5.72 and 5.74 |
| C=C(C)CCO | 1.82 |
| CC(=O)C(Cl)Cl | 3.64 |
| CCCC#CCC(O)CC (stereo not given) | 2.96 |
| Oc1ccccc1Cc1ccccc1 | 4.31 |
| O=C(O)c1cc(Br)cc(Br)c1 | 3.46 |
| O=[N+]([O-])c1cc(I)c(O)c(I)c1 | 4.81 |
| NC(=O)CBr | 4.52 |
| Clc1cccc(Cl)c1Br | 4.34 |
